Results from PMC6572064, “Discovery of 2-(1-(3-(4-Chloroxyphenyl)-3-oxo- propyl)pyrrolidine-3-yl)-1H-benzo[d]imidazole-4-carboxamide: A Potent Poly(ADP-ribose) Polymerase (PARP) Inhibitor for Treatment of Cancer” (Molecules, 2019).
Like-named read-outs stand apart in the source and are kept apart here.

Columns and labels:
PARP-1 = target: T1, PARP-1 (Homo sapiens, UniProt P09874); experiment: PARP-1 inhibition assay (PARP-1 Chemiluminescent Assay Kit, BPS Bioscience); assay type: biochemical; details: 10 nM compound
T1 construct: purchased BPS Bioscience 80569
T1 sequence (P09874 whole entry): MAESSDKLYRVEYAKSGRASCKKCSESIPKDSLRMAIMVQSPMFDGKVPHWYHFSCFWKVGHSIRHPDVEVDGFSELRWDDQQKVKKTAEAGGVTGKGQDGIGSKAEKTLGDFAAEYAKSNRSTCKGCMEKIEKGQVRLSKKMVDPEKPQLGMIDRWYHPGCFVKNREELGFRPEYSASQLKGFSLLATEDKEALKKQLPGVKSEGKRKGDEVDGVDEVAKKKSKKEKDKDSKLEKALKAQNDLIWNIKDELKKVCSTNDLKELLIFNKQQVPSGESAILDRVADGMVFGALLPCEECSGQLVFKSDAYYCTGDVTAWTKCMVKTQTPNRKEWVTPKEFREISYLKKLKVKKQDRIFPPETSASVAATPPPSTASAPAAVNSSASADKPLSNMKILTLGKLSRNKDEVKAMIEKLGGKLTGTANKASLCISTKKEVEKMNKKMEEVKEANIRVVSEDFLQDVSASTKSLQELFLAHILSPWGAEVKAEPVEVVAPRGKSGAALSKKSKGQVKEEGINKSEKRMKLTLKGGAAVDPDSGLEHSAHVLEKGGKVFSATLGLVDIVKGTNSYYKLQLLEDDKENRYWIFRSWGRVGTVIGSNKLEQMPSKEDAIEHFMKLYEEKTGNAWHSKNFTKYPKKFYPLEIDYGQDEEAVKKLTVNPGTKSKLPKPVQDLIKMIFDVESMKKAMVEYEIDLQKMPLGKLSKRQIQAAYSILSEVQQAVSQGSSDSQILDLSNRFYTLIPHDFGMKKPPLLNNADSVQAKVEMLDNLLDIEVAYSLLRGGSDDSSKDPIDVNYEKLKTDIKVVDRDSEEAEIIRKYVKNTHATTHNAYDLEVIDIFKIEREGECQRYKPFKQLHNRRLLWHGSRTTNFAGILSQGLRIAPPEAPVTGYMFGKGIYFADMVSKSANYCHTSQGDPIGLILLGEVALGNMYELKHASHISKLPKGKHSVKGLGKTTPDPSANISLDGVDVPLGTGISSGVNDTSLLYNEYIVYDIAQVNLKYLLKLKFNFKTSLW
Protocol: (§1) The PARP-1 and PARP-2 inhibition assays were performed in outsourcing, by a CRO company, Shanghai Medicilon Inc. (Shanghai, China). […] Briefly, PARP-1 or PARP-2 biotinylated substrate was incubated with compounds or solvent control at varying concentrations and an assay buffer containing the PARP-1 or PARP-2 enzyme.

PARP-2 = target: T2, PARP-2 (Homo sapiens, UniProt Q9UGN5); experiment: PARP-2 inhibition assay (PARP-2 Chemiluminescent Assay Kit, BPS Bioscience); assay type: biochemical; details: 10 nM compound
T2 construct: purchased BPS Bioscience 80552
T2 sequence (Q9UGN5 whole entry): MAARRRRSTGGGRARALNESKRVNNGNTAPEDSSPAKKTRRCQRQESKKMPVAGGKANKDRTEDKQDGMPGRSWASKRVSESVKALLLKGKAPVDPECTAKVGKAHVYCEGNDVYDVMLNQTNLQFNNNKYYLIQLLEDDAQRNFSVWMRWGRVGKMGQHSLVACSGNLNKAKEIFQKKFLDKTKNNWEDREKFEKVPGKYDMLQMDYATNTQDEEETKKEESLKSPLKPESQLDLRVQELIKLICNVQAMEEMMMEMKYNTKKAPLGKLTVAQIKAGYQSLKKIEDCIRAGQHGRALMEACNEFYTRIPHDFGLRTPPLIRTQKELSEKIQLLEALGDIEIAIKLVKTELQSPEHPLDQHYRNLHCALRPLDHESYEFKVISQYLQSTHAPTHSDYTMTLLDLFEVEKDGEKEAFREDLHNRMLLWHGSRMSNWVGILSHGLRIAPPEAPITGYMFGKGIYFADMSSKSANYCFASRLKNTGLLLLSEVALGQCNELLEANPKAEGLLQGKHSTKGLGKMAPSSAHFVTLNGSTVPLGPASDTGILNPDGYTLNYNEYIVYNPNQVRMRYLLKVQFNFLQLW
Protocol: as §1

[1] = tested on: MDA-MB-436 (a BRCA-1-mutated breast cancer cell line); experiment: Cell proliferation assay, three-day, CellTiter-Glo, MDA-MB-436; assay type: cell-based; details: for inhibition at 0.00508 µM / inhibition at 0.0152 µM / inhibition at 0.0457 µM / inhibition at 0.41 µM / inhibition at 1.23 µM / inhibition at 3.7 µM / inhibition at 11.11 µM / inhibition at 33.33 µM / inhibition at 100 µM / IC50: Homo sapiens; for inhibition at 0.00508 µM: MDA-MB-436, MDA-MB-436, Conc. 0.00508 uM; for inhibition at 0.0152 µM: MDA-MB-436, MDA-MB-436, Conc. 0.0152 uM; for inhibition at 0.0457 µM: MDA-MB-436, MDA-MB-436, Conc. 0.0457 uM; for inhibition at 0.41 µM: MDA-MB-436, MDA-MB-436, Conc. 0.41 uM; for inhibition at 1.23 µM: MDA-MB-436, MDA-MB-436, Conc. 1.23 uM; for inhibition at 3.7 µM: MDA-MB-436, MDA-MB-436, Conc. 3.70 uM; for inhibition at 11.11 µM: MDA-MB-436, MDA-MB-436, Conc. 11.11 uM; for inhibition at 33.33 µM: MDA-MB-436, MDA-MB-436, Conc. 33.33 uM; for inhibition at 100 µM: MDA-MB-436, MDA-MB-436, Conc. 100.00 uM
Protocol: (§2) A three-day assay was conducted. A cell suspension was prepared. Cell density was counted by an automated cell counter and then diluted to the required density, according to seeding density. 50 μL cells were seeded into 384-well plate in growth medium according to the plate map. The cells were incubated at 37 °C, 5% CO2 overnight.
(§3) 200× compound solution in DMSO was prepared and diluted with growth medium to 26× final concentration by addition of 26 μL 200× compounds to 174 μL growth medium. Then 2 μL of diluted compound solution was added to cells and the cell was incubated at 37 °C, 5% CO2 for 72 h.
(§4) The assay plate was equilibrated to room temperature prior to measurement. 15 μL of CellTiter-Glo Reagent was added into each well and the contents were mixed for 2 min on an orbital shaker to induce cell lysis. The cells were incubated at room temperature for 60 min to stabilize luminescent signal. Luminescence was recorded on the Envision system.

[2] = tested on: CAPAN-1 (a BRCA-2-mutated pancreatic cancer cell line); experiment: Cell proliferation assay, three-day, CellTiter-Glo, CAPAN-1; assay type: cell-based; details: for inhibition at 0.00508 µM: CAPAN-1, 0.00508 uM; for inhibition at 0.0152 µM: CAPAN-1, 0.0152 uM; for inhibition at 0.0457 µM: CAPAN-1, 0.0457 uM; for inhibition at […]: CAPAN-1, 0.14 uM; for inhibition at 0.41 µM: CAPAN-1, 0.41 uM; for inhibition at 1.23 µM: CAPAN-1, 1.23 uM; for inhibition at 3.7 µM: CAPAN-1, 3.70 uM; for inhibition at 11.11 µM: CAPAN-1, 11.11 uM; for inhibition at 33.33 µM: CAPAN-1, 33.33 uM; for inhibition at 100 µM: CAPAN-1, 100.00 uM
Protocol: as §2, §3, §4

[3] = Homo sapiens, replicate 1, read-out: Inh % 1
[4] = Homo sapiens, replicate 2, read-out: Inh % 2

`NC(=O)c1cccc2[nH]c(C3CCN(CCC(=O)Nc4ccccc4)C3)nc12` (centres unmarked) [Compound 5cb, 2-(1-(3-Oxo-3-(Phenylamino)propyl)pyrrolidin-3-yl)-1H-benzo[d]imidazole-4-carboxamide] was tested, and the inhibition at 0.01 µM (PARP-1; supplement sheet, read-out: 10 nM inhibition% PAPR-1) was 19.9%, the inhibition at 0.01 µM (PARP-1; read-out: PARP-1 Inhibition % (10 nM)) was 19.9% and the inhibition at 0.01 µM (PARP-2; supplement sheet, read-out: 10 nM inhibition% PAPR-2) was 41.2%. For the same molecule, the inhibition at 0.01 µM (PARP-2; read-out: PARP-2 Inhibition % (10 nM)) was 41.2%, the inhibition at 0.00508 µM ([1]; replicate 1, read-out: Inh % 1) was 0.0167% and the inhibition at 0.00508 µM ([1]; replicate 2, read-out: Inh % 2) was -6.8%. It also gave an inhibition at 0.0152 µM ([1]; replicate 1, read-out: Inh % 1) of -5.6%, an inhibition at 0.0152 µM ([1]; replicate 2, read-out: Inh % 2) of -10.5% and an inhibition at 0.0457 µM ([1]; replicate 1, read-out: Inh % 1) of -12.9%. For the same molecule, the inhibition at 0.0457 µM ([1]; replicate 2, read-out: Inh % 2) was -11.3%, the inhibition at 0.41 µM ([1]; replicate 1, read-out: Inh % 1) was -10% and the inhibition at 0.41 µM ([1]; replicate 2, read-out: Inh % 2) was -14%. It also gave an inhibition at 1.23 µM ([1]; replicate 1, read-out: Inh % 1) of -9.6%, an inhibition at 1.23 µM ([1]; replicate 2, read-out: Inh % 2) of -14.7% and an inhibition at 3.7 µM ([1]; replicate 1, read-out: Inh % 1) of -9.8%. For the same molecule, the inhibition at 3.7 µM ([1]; replicate 2, read-out: Inh % 2) was -10.5%, the inhibition at 11.11 µM ([1]; replicate 1, read-out: Inh % 1) was -2.5% and the inhibition at 11.11 µM ([1]; replicate 2, read-out: Inh % 2) was -1.6%. For the same molecule, the inhibition at 33.33 µM ([1]; replicate 1, read-out: Inh % 1) was 9.7%, the inhibition at 33.33 µM ([1]; replicate 2, read-out: Inh % 2) was 9.8% and the inhibition at 100 µM ([1]; replicate 1, read-out: Inh % 1) was 58.3%. For the same molecule, the inhibition at 100 µM ([1]; replicate 2, read-out: Inh % 2) was 40%, the IC50 ([1]; MDA-MB-436, 72 h, CellTiter-Glo, read-out: MDA-MB-436 IC50) was 90.4 µM and the IC50 ([1]; MDA-MB-436, 72 h, supplement Summary sheet, read-out: IC50) was 90.4 µM. It also gave an IC50 ([1]; MDA-MB-436, curve fit list, no unit in the cell, concentration in uM, read-out: IC50) of 90.4 µM, a LogIC50 ([1]; MDA-MB-436, curve fit on Log (uM) concentrations) of 1.956 and a Bottom ([1]; MDA-MB-436, curve fit parameter (Inh %)) of -10.26. For the same molecule, the Top ([1]; MDA-MB-436, curve fit parameter (Inh %), '= 100.0' is a constrained value) was “= 100.0”, the LogIC50 ([2]; CAPAN-1, curve-fit output, Log (uM)) was 2.189 and the IC50 ([2]; Homo sapiens, CAPAN-1, 72 h, CellTiter-Glo, read-out: CAPAN-1 IC50) was over 100 µM. For the same molecule, the inhibition at 0.00508 µM [2, 3] was -8%, the inhibition at 0.00508 µM [2, 4] was 3.3% and the inhibition at 0.0152 µM [2, 3] was 3.4%. The inhibition at 0.0152 µM [2, 4] was 17%, the inhibition at 0.0457 µM [2, 3] was -4.1% and the inhibition at 0.0457 µM [2, 4] was 5.6%. The inhibition at […] [2, 3] was -2%, the inhibition at […] [2, 4] was 2.2% and the inhibition at 0.41 µM [2, 3] was 10.3%. It also gave an inhibition at 0.41 µM [2, 4] of 6.1%, an inhibition at 1.23 µM [2, 3] of 12.4% and an inhibition at 1.23 µM [2, 4] of -0.64%. For the same molecule, the inhibition at 3.7 µM [2, 3] was 11.2%, the inhibition at 3.7 µM [2, 4] was 9.9% and the inhibition at 11.11 µM [2, 3] was 5%. It also gave an inhibition at 11.11 µM [2, 4] of -4.1%, an inhibition at 33.33 µM [2, 3] of 3.6% and an inhibition at 33.33 µM [2, 4] of 21.6%. It also gave an inhibition at 100 µM [2, 3] of 39.1% and an inhibition at 100 µM [2, 4] of 32%.
